Consider three molecules from US10189796B2, “[4-(1,3,3-trimethyl-2-oxo-3,4-dihydro-1H-quinoxalin-7-yl)phenoxy]ethyloxy compound or salt thereof” (SANTEN PHARMACEUTICAL CO., LTD., priority 2015, dated 2019).

The subject of experiment [1] is exorbital lacrimal gland-removed rat dry eye model. Briefly: Dry eye syndrome (dry eye) model evaluation test. It is filed as in vivo. The following applies: eye drop 5 μL four times a day.
Experiment [2] has the same test system. Briefly: Dry eye syndrome (dry eye) model evaluation test. The format is in vivo. The conditions noted are these: eye drop 5 μL four times a day. Here is the method: In order to evaluate the treatment effect of the present compounds on corneal disorder accompanied by dry eye syndrome (dry eye), a treatment effect on corneal disorder in an exorbital lacrimal gland-removed rat dry eye model was investigated. This model was prepared in accordance with the method of Fujihara, et al. (Invest. Ophthalmol. Vis. Sci., 42(1): 96-100 (2001)). Incidentally, this effect was scored according to the method of Murakami et al. (New Ophthalmologist 21(1): 87-90 (2004)), the extent of corneal disorder was scored and the improvement ratio was calculated from the corneal disorder score of the base agent administered group (control group), the corneal disorder score of the test compound administered group and the corneal disorder score of the normal rat.
A base agent containing a general additive(s) was added to the test compound to prepare test compound suspensions with 0.03% (W/V) and 0.1% (W/V). In addition, a base agent was added to the commercially available drug A to prepare a diluted solution with 0.05% (V/V).
• 1) By using male SD rats, somnopentyl was administered to the rats to apply them general anesthesia, exorbital lacrimal glands were removed, and corneal disorder was induced over 8 weeks thereafter. • 2) The test compound suspension was eye-dropped (instillation dose: 5 μL/time) to both eyes four times a day for 14 days. Incidentally, the base agent was similarly eye-dropped to the administered group (control group), and the commercially available drug A and its diluted solution were similarly eye-dropped. • 3) Fourteen days after the start of eye dropping, the cornea was stained with fluorescein. For each of the upper part, the middle part and the lower part of the cornea, scores of the degree of staining with fluorescein were determined according to the following criteria, and an average value of the total of the scores was calculated. Incidentally, 0.5 was set as an intermediate value between each score of 0, 1, 2 and 3. <<Judgement Standard>>
1: Dyeing is sparse, and the dyed portions of each dot are separated
2: Dyeing is a middle degree and part of the dotted dyed portions is adjacent
3: Dyeing is dense, and the dyed portions of each point are almost adjacent
(Calculation Formula) Corneal disorder improvement ratio (%) of the test compound administered group=(Ao−Ax)/(Ao−An)×100 • Ao: Average value of corneal disorder score of the base agent administered group (control group) • Ax: Average value of corneal disorder score of the test compound administered group • An: Average value of corneal disorder score of normal rat (Test Result and Consideration)
The source holds these as a separate data set.

For experiment [3], the system named is ovalbumin actively sensitized allergic conjunctivitis model of rabbits. Briefly: Allergic conjunctivitis model evaluation test. The following applies: 1% suspension, eye drop 50 μL four times a day for 4 days plus once; 0.5 hour after challenge. The format is in vivo, rabbit. How it is done: In order to evaluate an anti-allergic action of the present compounds on allergic conjunctivitis, an inhibitory effect on hyperemia in an ovalbumin actively sensitized allergic conjunctivitis model of rabbits was investigated. Incidentally, this effect was evaluated by calculating an inhibitory ratio from the score of the base agent administered group (control group) and the score of the test compound administered group.
A base agent containing a general additive(s) was added to the test compound to prepare test compound suspensions with 1% (WN) and 3% (W/V).
By using male JW rabbits, ovalbumin (200 μg/mL/physiological saline solution) adsorbed on aluminum hydroxide gel was injected 200 μL per eye into bulbar conjunctiva of both eyes of rabbits, respectively, to perform active sensitization.
After 14 days from sensitization or later, the test compound suspension was eye-dropped four times a day for 4 days, and then, at the next day, it was eye-dropped (instillation dose: 50 μL/time) once to both eyes. Incidentally, the base agent was similarly eye-dropped to the base agent administered group (control group).
One hour after the final eye dropping of the test compound suspension, a physiological saline solution containing 0.02% (W/V) of ovalbumin was administered from rabbit ear vein at a dose of 1.5 mL per 1 kg of rabbit to induce allergic conjunctivitis.
After 0.5 hour of the challenge, the degree of hyperemia symptoms of both ocular conjunctiva of rabbits was evaluated according to the following criteria, and the average value of the total of these scores was calculated. […]

The target of experiment [4] is Recombinant human GR (Homo sapiens (Human), UniProt P04150). Briefly: GR competitive binding assay by fluorescence polarization. The conditions noted are these: 20 μM test compound solution, 10 μL/well; 2 hours; DEX positive control; read-out: GR binding rate (%). Summed up:
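Fluorescence polarization competition between test compound and Fluormone GS1 fluorescent glucocorticoid ligand for recombinant human GR. Buffer 10 mM potassium phosphate pH 7.4, 20 mM Na2MoO4, 0.1 mM EDTA, 5 mM DTT, 2% DMSO. 2 h dark incubation at room temperature; binding ratio (%) scaled between buffer-only and DEX controls.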
(In general: In fluorescence polarisation assays a small probe gives low polarisation when free and higher when bound to something large.)

The subject of experiment [5] is TNFα production in rat whole blood. Briefly: TNFα production inhibitory action evaluation test (LPS stimulation ex vivo, ELISA). The following applies: 20 hours, 200 μM test compound solution 10 μL/well, DEX treated group = 100, read-out: TNFα production inhibitory ratio (% DEX). It is filed as cell-based. How it is done:
In order to evaluate an action of the present compound as a GR agonist, a TNFα production inhibitory action in rat whole blood after LPS stimulation ex vivo was investigated. For the measurement of the TNFα production amount, the ELISA method (manufactured by R&D Systems, Cat No. RTA00) was used, and a procedure was carried out according to the protocol attached thereto. Hereinafter, the specific method will be described.
LPS solution: LPS was dissolved in PBS(−) and diluted with RPMI 1640 to prepare an LPS solution with a concentration of 2 μg/mL.
After the test compound was dissolved in dimethylsulfoxide, the solution was diluted with PBS(−) to prepare 200 μM of a test compound solution. In addition, DEX was similarly dissolved to prepare 200 μM of a DEX solution, and a TNFα production inhibitory ratio of DEX was measured, and used for calculation of Efficacy (% DEX).
• 1) Blood was collected from 3 to 5 rats using an injection syringe treated with heparin from the abdominal aorta under isoflurane anesthesia. The rats confirmed death after lething the whole blood. • 2) The blood of 3 to 5 rats pooled in a 96-well round bottom culture plate was seeded at each 180 μL/well. • 3) It was cultured (37° C., 5% CO2, 95% air) for about 1 hour. • 4) The test compound solution was added each 10 μL/well, and cultured for 1 hour. • 5) LPS solution was added each 10 μL/well. • 6) The sample in which 2% dimethylsulfoxide-containing PBS(−) was added with each 10 μL/well in place of each test compound solution, and RPMI 1640 was added with each 10 μL/well in place of the LPS solution was made a negative control. • 7) The sample in which 2% dimethylsulfoxide-containing PBS(−) was added with each 10 μL/well in place of each test compound solution was made a positive control. • 8) After completion of 20 hours cultivation, the supernatant was recovered and the amount of TNFα released in the supernatant was measured by using an ELISA Kit. • 9) The TNFα production inhibitory ratio was calculated according to the following calculation formula. (Calculation of TNFα Production Inhibitory Ratio)
TNFα production inhibitory ratio (%) was calculated according to the following formula. TNFα production inhibitory ratio (%)=100×{1−(TNFα production amount of each test compound solution−average value of TNFα production amount of negative control group)/(average value of TNFα production amount of positive control group−average value of TNFα production amount of negative control group)}(%)
Further, a TNFα production inhibitory ratio (Efficacy (% DEX)) when the DEX treated group was made 100 was calculated. Efficacy (% DEX)=100×{(average value of TNFα production inhibitory ratio of each test compound solution)/(average value of TNFα production inhibitory ratio of DEX treated group)}(%)

Molecules are shown by their SMILES.

Sequence of Recombinant human GR (P04150 whole entry): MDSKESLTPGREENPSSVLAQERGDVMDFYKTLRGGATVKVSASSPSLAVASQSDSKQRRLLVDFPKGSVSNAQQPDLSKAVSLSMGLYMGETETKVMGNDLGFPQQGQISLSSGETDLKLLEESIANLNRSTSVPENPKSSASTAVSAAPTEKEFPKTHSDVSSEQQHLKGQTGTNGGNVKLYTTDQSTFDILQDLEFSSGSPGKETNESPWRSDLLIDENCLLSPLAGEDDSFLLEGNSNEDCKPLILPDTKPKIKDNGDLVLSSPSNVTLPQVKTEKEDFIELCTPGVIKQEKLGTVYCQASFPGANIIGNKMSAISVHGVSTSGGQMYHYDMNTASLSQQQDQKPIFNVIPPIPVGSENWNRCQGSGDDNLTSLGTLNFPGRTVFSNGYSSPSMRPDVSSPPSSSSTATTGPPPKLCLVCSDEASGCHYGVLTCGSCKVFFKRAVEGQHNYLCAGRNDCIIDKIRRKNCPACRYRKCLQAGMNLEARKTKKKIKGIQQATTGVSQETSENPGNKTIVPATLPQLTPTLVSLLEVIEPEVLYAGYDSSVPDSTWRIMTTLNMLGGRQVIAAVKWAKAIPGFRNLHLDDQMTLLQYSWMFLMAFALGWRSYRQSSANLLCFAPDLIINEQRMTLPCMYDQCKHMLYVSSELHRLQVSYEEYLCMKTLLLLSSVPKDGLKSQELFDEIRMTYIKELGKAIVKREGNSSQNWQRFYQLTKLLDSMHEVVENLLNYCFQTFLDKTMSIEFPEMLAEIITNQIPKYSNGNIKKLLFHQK

With `COc1cc(OC[C@H](C)OC(=O)CCC(=O)O)ccc1-c1ccc2c(c1COc1cc(F)ccc1C)N(C)C(=O)C(C)(C)N2` [Compound 12-1, (S)-7-[4-[2-(3-carboxypropanoyloxy)propyl]oxy-2-methoxyphenyl]-8-(5-fluoro-2-methylphenoxymethyl)-1,3,3-trimethyl-3,4-dihydro-1H-quinoxalin-2-one], the “Corneal disorder improvement ratio (%) After 7 days eye dropping” value was found to be 33% in experiment [1] (0.03%) and 42% in experiment [1] (0.1%). Besides, the “Corneal disorder improvement ratio (%) After 14 days eye dropping” value in experiment [2] (0.03%) is 48%; in experiment [2] (0.1%), 58%.
On to `COc1cc(OC[C@H](C)OP(=O)(O)O)ccc1-c1ccc2c(c1COc1cc(F)ccc1C)N(C)C(=O)C(C)(C)N2` [Compound 14-1, (S)-8-(5-fluoro-2-methylphenoxymethyl)-7-[4-(2-phosphonohydroxypropyl)oxy-2-methoxyphenyl]-1,3,3-trimethyl-3,4-dihydro-1H-quinoxalin-2-one], for which the “Eye congestion inhibitory ratio (%)” value in experiment [3] turned out to be 22%. Moreover, the inhibition at 10 µM in experiment [4] is more than 99%. In experiment [5], the Emax was found to be 86%.
On to `COc1cc(OC[C@H](C)OC(=O)C(O)CO)ccc1-c1ccc2c(c1COc1cc(F)ccc1C)N(C)C(=O)C(C)(C)N2` (stereo partly drawn) [Compound 13-1, (S)-7-[4-[2-(2,3-dihydroxypropanoyl)oxypropyl]oxy-2-methoxyphenyl]-8-(5-fluoro-2-methylphenoxymethyl)-1,3,3-trimethyl-3,4-dihydro-1H-quinoxalin-2-one], for which the “Corneal disorder improvement ratio (%) After 7 days eye dropping” value in experiment [1] (0.1%) was found to be 38%. Also, the “Corneal disorder improvement ratio (%) After 14 days eye dropping” value in experiment [2] (0.1%) came to 46%.
